Assay results from PubChem BioAssay (NCI).
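These data come from cells grown in 96-well plates and exposed to compound for 48 hours at five concentrations. At the GI50, growth is halved. TGI is the concentration that stops growth completely.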

Legend:
Test in all cases: NCI-60 cell line screen, 48 h
SK-MEL-28 melanoma = tested on: SK-MEL-28 melanoma
NCI-H460 lung = tested on: NCI-H460 lung
A549 NSCLC = tested on: A549 NSCLC
IGROV1 ovarian = tested on: IGROV1 ovarian
K-562 leukemia = tested on: K-562 leukemia
HCT-15 colon = tested on: HCT-15 colon
MDA-MB-231 breast = tested on: MDA-MB-231 breast
NCI-H522 lung = tested on: NCI-H522 lung
OVCAR-4 ovarian = tested on: OVCAR-4 ovarian
HOP-62 NSCLC = tested on: HOP-62 NSCLC
T-47D breast = tested on: T-47D breast
SF-268 CNS = tested on: SF-268 CNS
BT-549 breast = tested on: BT-549 breast
SR leukemia = tested on: SR leukemia
SNB-19 CNS = tested on: SNB-19 CNS
OVCAR-5 ovarian = tested on: OVCAR-5 ovarian
LOX IMVI melanoma = tested on: LOX IMVI melanoma
COLO 205 colon = tested on: COLO 205 colon
UO-31 renal = tested on: UO-31 renal
MDA-MB-435 = tested on: MDA-MB-435
SNB-75 CNS = tested on: SNB-75 CNS
ACHN renal = tested on: ACHN renal
HT29 colon = tested on: HT29 colon
NCI-H23 lung = tested on: NCI-H23 lung
CAKI-1 renal = tested on: CAKI-1 renal
RXF 393 renal = tested on: RXF 393 renal
HCT-116 colon = tested on: HCT-116 colon
SF-539 CNS = tested on: SF-539 CNS
U251 CNS = tested on: U251 CNS
TK-10 renal = tested on: TK-10 renal
UACC-257 melanoma = tested on: UACC-257 melanoma
OVCAR-3 ovarian = tested on: OVCAR-3 ovarian
MDA-MB-468 breast = tested on: MDA-MB-468 breast
KM12 colon = tested on: KM12 colon
RPMI-8226 leukemia = tested on: RPMI-8226 leukemia
SK-MEL-5 melanoma = tested on: SK-MEL-5 melanoma
SK-MEL-2 melanoma = tested on: SK-MEL-2 melanoma
PC-3 prostate = tested on: PC-3 prostate
SF-295 CNS = tested on: SF-295 CNS
M14 melanoma = tested on: M14 melanoma
OVCAR-8 ovarian = tested on: OVCAR-8 ovarian
EKVX NSCLC = tested on: EKVX NSCLC
786-0 renal = tested on: 786-0 renal
MCF7 breast = tested on: MCF7 breast
SN12C renal = tested on: SN12C renal
MOLT-4 leukemia = tested on: MOLT-4 leukemia
NCI-H226 lung = tested on: NCI-H226 lung
HS 578T breast = tested on: HS 578T breast
A498 renal = tested on: A498 renal
CCRF-CEM leukemia = tested on: CCRF-CEM leukemia
HL-60(TB) leukemia = tested on: HL-60(TB) leukemia
SW-620 colon = tested on: SW-620 colon
UACC-62 melanoma = tested on: UACC-62 melanoma
SK-OV-3 ovarian = tested on: SK-OV-3 ovarian
HCC-2998 colon = tested on: HCC-2998 colon
MALME-3M melanoma = tested on: MALME-3M melanoma
DU-145 prostate = tested on: DU-145 prostate
HOP-92 NSCLC = tested on: HOP-92 NSCLC
NCI/ADR-RES ovarian = tested on: NCI/ADR-RES ovarian

O=c1cc(-c2ccccc2)oc2cc(OCCCC[P+](c3ccccc3)(c3ccccc3)c3ccccc3)cc(O)c12
GI50 (SK-MEL-28 melanoma): 601 nM | TGI (SK-MEL-28 melanoma): 1830 nM | GI50 (NCI-H460 lung): 509 nM | TGI (NCI-H460 lung): 1810 nM | GI50 (A549 NSCLC): 2820 nM | TGI (A549 NSCLC): 16500 nM | GI50 (IGROV1 ovarian): 785 nM | TGI (IGROV1 ovarian): 2360 nM | GI50 (K-562 leukemia): 326 nM | TGI (K-562 leukemia): > 100000 nM | GI50 (HCT-15 colon): 1020 nM | TGI (HCT-15 colon): 2480 nM | GI50 (MDA-MB-231 breast): 1070 nM | TGI (MDA-MB-231 breast): 2570 nM | GI50 (NCI-H522 lung): 789 nM | TGI (NCI-H522 lung): 2540 nM | GI50 (OVCAR-4 ovarian): 549 nM | TGI (OVCAR-4 ovarian): 6760 nM | GI50 (HOP-62 NSCLC): 1420 nM | TGI (HOP-62 NSCLC): 2870 nM | GI50 (T-47D breast): 273 nM | TGI (T-47D breast): 2770 nM | GI50 (SF-268 CNS): 1290 nM | TGI (SF-268 CNS): 3560 nM | GI50 (BT-549 breast): 542 nM | TGI (BT-549 breast): 1740 nM | GI50 (SR leukemia): 834 nM | TGI (SR leukemia): > 100000 nM | GI50 (SNB-19 CNS): 410 nM | TGI (SNB-19 CNS): 1420 nM | GI50 (OVCAR-5 ovarian): 1580 nM | TGI (OVCAR-5 ovarian): 5110 nM | GI50 (LOX IMVI melanoma): 1130 nM | TGI (LOX IMVI melanoma): 2360 nM | GI50 (COLO 205 colon): 1470 nM | TGI (COLO 205 colon): 3010 nM | GI50 (UO-31 renal): 1390 nM | TGI (UO-31 renal): 2890 nM | GI50 (MDA-MB-435): 356 nM | TGI (MDA-MB-435): 1390 nM | GI50 (SNB-75 CNS): 419 nM | TGI (SNB-75 CNS): 1680 nM | GI50 (ACHN renal): 996 nM | TGI (ACHN renal): 2390 nM | GI50 (HT29 colon): 2600 nM | TGI (HT29 colon): 11300 nM | GI50 (NCI-H23 lung): 1100 nM | TGI (NCI-H23 lung): 2740 nM | GI50 (CAKI-1 renal): 1630 nM | TGI (CAKI-1 renal): 4340 nM | GI50 (RXF 393 renal): 707 nM | TGI (RXF 393 renal): 2150 nM | GI50 (HCT-116 colon): 863 nM | TGI (HCT-116 colon): 2120 nM | GI50 (SF-539 CNS): 892 nM | TGI (SF-539 CNS): 2150 nM | GI50 (U251 CNS): 716 nM | TGI (U251 CNS): 2160 nM | GI50 (TK-10 renal): 903 nM | TGI (TK-10 renal): 3270 nM | GI50 (UACC-257 melanoma): 548 nM | TGI (UACC-257 melanoma): 1900 nM | GI50 (OVCAR-3 ovarian): 526 nM | TGI (OVCAR-3 ovarian): 2220 nM | GI50 (MDA-MB-468 breast): 148 nM | TGI (MDA-MB-468 breast): 433 nM | GI50 (KM12 colon): 738 nM | TGI (KM12 colon): 2130 nM | GI50 (RPMI-8226 leukemia): 303 nM | TGI (RPMI-8226 leukemia): 1820 nM | GI50 (SK-MEL-5 melanoma): 276 nM | TGI (SK-MEL-5 melanoma): 693 nM | GI50 (SK-MEL-2 melanoma): 238 nM | TGI (SK-MEL-2 melanoma): 603 nM | GI50 (PC-3 prostate): 899 nM | TGI (PC-3 prostate): 2700 nM | GI50 (SF-295 CNS): 1410 nM | TGI (SF-295 CNS): 2760 nM | GI50 (M14 melanoma): 408 nM | TGI (M14 melanoma): 1540 nM | GI50 (OVCAR-8 ovarian): 1040 nM | TGI (OVCAR-8 ovarian): 6100 nM | GI50 (EKVX NSCLC): 494 nM | TGI (EKVX NSCLC): 1860 nM | GI50 (786-0 renal): 1860 nM | TGI (786-0 renal): 3840 nM | GI50 (MCF7 breast): 499 nM | TGI (MCF7 breast): 2280 nM | GI50 (SN12C renal): 603 nM | TGI (SN12C renal): 1660 nM | GI50 (MOLT-4 leukemia): 771 nM | TGI (MOLT-4 leukemia): 3240 nM | GI50 (NCI-H226 lung): 1500 nM | TGI (NCI-H226 lung): 4200 nM | GI50 (HS 578T breast): 1320 nM | TGI (HS 578T breast): 4270 nM | GI50 (A498 renal): 2030 nM | TGI (A498 renal): 5590 nM | GI50 (CCRF-CEM leukemia): 826 nM | TGI (CCRF-CEM leukemia): 4750 nM | GI50 (HL-60(TB) leukemia): 246 nM | TGI (HL-60(TB) leukemia): 1820 nM | GI50 (SW-620 colon): 997 nM | TGI (SW-620 colon): 2670 nM | GI50 (UACC-62 melanoma): 573 nM | TGI (UACC-62 melanoma): 1560 nM | GI50 (SK-OV-3 ovarian): 728 nM | TGI (SK-OV-3 ovarian): 1920 nM | GI50 (HCC-2998 colon): 412 nM | TGI (HCC-2998 colon): 1540 nM | GI50 (MALME-3M melanoma): 397 nM | TGI (MALME-3M melanoma): 1190 nM | GI50 (DU-145 prostate): 813 nM | TGI (DU-145 prostate): 2970 nM | GI50 (HOP-92 NSCLC): 292 nM | TGI (HOP-92 NSCLC): 1130 nM | GI50 (NCI/ADR-RES ovarian): 3290 nM | TGI (NCI/ADR-RES ovarian): > 100000 nM
